# Results as given in PubChem BioAssay AID652281 (Sanford-Burnham Center for Chemical Genomics, 2013).
# The source made the active and inactive calls.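 Rule for the calls: active = compounds toxic to worms, with a half-maximal toxicity dose of 25 µM or lower; inactive = the rest.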
# Test system: C. elegans VP596 worm health composite score, 20-22 h
# Assay: C. elegans worm health toxicity scoring, SAR follow-up, cytotoxicity control for SKN-1 inhibitor project, whole organism, strain VP596, composite health score, round 2 (AID 652281)
row,Structure (SMILES),IC50
1,CCOc1cc(CNC2CC2)cc(Cl)c1OCc1ccc(C#N)cc1,> 64 µM (inactive)
2,CCOc1cc(CNC2CCCC2)cc(Cl)c1OCc1ccc(Cl)cc1F,> 64 µM (inactive)
3,CCOc1cc(CNC)cc(Cl)c1OCc1ccc(Cl)cc1,> 64 µM (inactive)
4,C#CCNCc1cc(Cl)c(OCc2ccc(Cl)cc2)c(OCC)c1,> 64 µM (inactive)
5,Cc1cc(CNC2CCCC2)cc(C)c1OCc1ccc(Cl)cc1,> 64 µM (inactive)
6,CCOc1cc(CNC2CCCC2)cc(Cl)c1OCc1ccc(C#N)cc1,> 64 µM (inactive)
7,CCOc1cc(CN(C)C2CCCC2)cc(Cl)c1OCc1ccc(Cl)cc1,> 64 µM (inactive)
8,CCOc1cc(CN(C(C)=O)C2CCCC2)cc(Cl)c1OCc1ccc(Cl)cc1,> 64 µM (inactive)
9,CCOc1cc(CN2CCCC2)cc(Cl)c1OCc1ccc(Cl)cc1,> 64 µM (inactive)
10,COc1cc(CNC2CCCC2)cc(Br)c1OCc1ccc(Cl)cc1,> 64 µM (inactive)
11,CCOc1cc(CN2CCOCC2)cc(Cl)c1OCc1ccc(Cl)cc1,> 64 µM (inactive)
12,CCOc1cc(CNC2CC2)cc(Cl)c1OCc1ccc(Br)cc1,> 64 µM (inactive)
13,CCOc1cc(CN2CCCC2)cc(Cl)c1OCc1ccc(F)cc1,> 64 µM (inactive)
14,CCOc1cc(CNC2CCCC2)cc(Cl)c1OCc1ccc(Br)cc1,> 64 µM (inactive)
15,CCOc1cc(CNC2CC2)cc(Cl)c1OCc1ccc(Cl)cc1F,> 64 µM (inactive)
16,CCOc1cc(CNC2CC2)cc(Cl)c1OCc1ccc(Cl)cc1,> 64 µM (inactive)
17,COc1cc(CNC2CCCC2)cc(Cl)c1OCc1ccc(Cl)cc1,> 64 µM (inactive)
18,COc1cc(CNC2CCCC2)cc(F)c1OCc1ccc(Cl)cc1,> 64 µM (inactive)
19,CCOc1cc(CN2CCCCC2)cc(Cl)c1OCc1ccc(F)cc1,> 64 µM (inactive)
20,CCOc1cc(CN2CCCCC2)cc(Cl)c1OCc1ccc(Cl)cc1,> 64 µM (inactive)
21,CCOc1cc(CNCC2CC2)cc(Cl)c1OCc1ccc(Cl)cc1,> 64 µM (inactive)
22,CCOc1cc(CN2CCN(C)CC2)cc(Cl)c1OCc1ccc(F)cc1,> 64 µM (inactive)
23,C=CCNCc1cc(Cl)c(OCc2ccc(Cl)cc2)c(OCC)c1,> 64 µM (inactive)
24,CCOc1cc(CN2CCN(C)CC2)cc(Cl)c1OCc1ccc(Cl)cc1,> 64 µM (inactive)
25,CCOc1cc(CN2CCOCC2)cc(Cl)c1OCc1ccc(F)cc1,> 64 µM (inactive)
26,Clc1ccc(COc2c(Cl)cc(CNC3CCCC3)cc2Cl)cc1,> 64 µM (inactive)
27,CCCNCc1cc(Cl)c(OCc2ccc(Cl)cc2)c(OCC)c1,> 64 µM (inactive)
